Tests used:
[1] = Reversal/inhibition of TMB oxidation, PIC1 added before TMB or after TMB incubated with MPO; format: biochemical; conditions: PIC1 added after MPO and TMB had incubated
Method: We then tested whether PIC1 could reverse the oxidized state of TMB after incubation with MPO.

MPO in neutrophil lysate = experiment: MPO peroxidase activity (TMB) in neutrophil lysate; format: biochemical; conditions: 0.9 mM PIC1 vs no PIC1, n = 4, P < 0.001
Method: Neutrophils from the blood of healthy volunteers were purified from heparinized blood by Hypaque-Ficoll step gradient centrifugation, dextran sedimentation, and hypotonic lysis, as previously described. Neutrophils were adjusted to 1×10^7 cells/ml for the functional studies. Neutrophils were sedimented, lysed in 1% Triton X-100, and 1×10^6 cell/ml equivalent aliquots were used for neutrophil lysate assays.
(§1) MPO peroxidase activity utilizing pure MPO was assayed by combing the MPO solution, diluted to 160 nM with PBS buffer, with an inhibitor, at denoted concentrations, in a 1:1 ratio (v/v) for 1 min. prior to adding TMB.
To measure MPO peroxidase activity using TMB, 20 μl of assay supernatant, CF sol, or neutrophil lysate was serially diluted and then combined with 100 μl of TMB in a non-treated 96-well plate followed by 100 μl of 2.5 N H2SO4 (stop buffer) and absorbance was read at 450 nm. For MPO functional assays using ABTS, 150 μl of ABTS solution was added to each sample and incubated for 5 minutes before adding 100 μl of 1% SDS to stop the reaction. Absorbance was read at 405 nm. O-dianisidine working solution was prepared by making a 0.166 mg/ml solution in 50 mM phosphate-citrate buffer, pH 5.0 with a final of 0.006% H2O2 added immediately before use. […] Absorbance was read at 405 nm.

MPO heme ring [2] = experiment: Spectral analysis of MPO heme ring with bleach (NaOCl); conditions: 2 μM MPO, 2.5 mM PIC1, bleach 1:1000, n = 2
Method: (§2) As each component is added to the MPO it is allowed to incubate for 5 minutes. […] Absorbance values were recorded from 300–550 nm.

MPO = experiment: Ferrozine assay of Fe release from MPO in the presence of bleach; conditions: 2 μM MPO, 2.5 mM PIC1, bleach 1:1000; 562 nm
Method: Iron release from MPO was measured utilizing a ferrozine assay. After the absorbance spectra was recorded, 100 μl of ascorbic acid (100 mM) was added to each sample and allowed to incubate for 5 minutes. Then 50 μl of ammonium acetate (16%) and 50 μl of ferrozine (16 mM) were added to the samples and mixed. After incubating for 5 minutes, absorbance was measured at 562 nm. A standard curve was prepared using ammonium Fe(III) sulfate and a linear regression was used to calculate the free iron concentration.

C1q = conditions: cited from earlier work
purified MPO [3] = experiment: Purified MPO oxidation of O-dianisidine; format: biochemical; conditions: PIC1 0.5–0.9 mM
Method: as §1
(§3) To measure MPO peroxidase activity using TMB, 20 μl of assay supernatant, CF sol, or neutrophil lysate was serially diluted and then combined with 100 μl of TMB in a non-treated 96-well plate followed by 100 μl of 2.5 N H2SO4 (stop buffer) and absorbance was read at 450 nm. For MPO functional assays using ABTS, 150 μl of ABTS solution was added to each sample and incubated for 5 minutes before adding 100 μl of 1% SDS to stop the reaction. Absorbance was read at 405 nm. O-dianisidine working solution was prepared by making a 0.166 mg/ml solution in 50 mM phosphate-citrate buffer, pH 5.0 with a final of 0.006% H2O2 added immediately before use. For MPO measurements, 100 μl of the prepared O-dianisidine solution was added to each sample and incubated for 2 minutes before adding 100 μl of 2.5 N H2SO4 to stop the reaction. Absorbance was read at 405 nm.

complement activation = conditions: cited from earlier work
From the text: DMSO as a diluent decreas ...

purified MPO [4] = experiment: Dose-response inhibition of pure MPO at various MPO concentrations; format: biochemical
Method: as §3

MPO in CF sputum sol [5] = experiment: MPO peroxidase activity (TMB) in CF sputum sol ± neutrophils (PMN), heat-killed P. aeruginosa or heat-aggregated IgG; format: biochemical; conditions: CF sol only, + killed P. aeruginosa, + Agg IgG
Method: To these samples were added 1×10^6 neutrophils for 1 hour at 37°C. These samples were then analyzed for MPO peroxidase activity by TMB assay, described below.
as §3

MPO in CF sol = experiment: pH effect on MPO peroxidase activity (TMB) in CF sol; format: biochemical; conditions: PIC1 7.5 mM (pH 4.7) vs sol acidified to pH 4.0
Method: Assays of pH effect on MPO peroxidase activity in CF sols was performed by adjusting one representative CF sol, initially at a pH of 7.0, to pH values of 6.0, 5.0, and 4.0 using H2SO4. […] TMB was added after 5 minutes.
as §3

purified MPO [6] = experiment: Purified MPO oxidation of ABTS; format: biochemical; conditions: PIC1 0.5–0.9 mM
Method: as §1, §3

[7] = cited from earlier work
From the text: Evidence from previous investigators implicate MPO as a major contributor to CF lung damage, which is consistent with MPO being the most prevalent peroxidase in neutrophils and the clear role of neutrophils mediating lung destruction in CF.

MPO in CF sputum sols = experiment: MPO peroxidase activity (TMB) in 14 clinical CF sputum sols; format: biochemical
Method: Expectorated sputum samples were collected in sterile containers and immediately placed on ice. The soluble fraction (sol) was extracted as a supernatant of free flowing liquid after cold (4°C) centrifugation at 14,000 g for 60 minutes, similar to previously described methods. Due to the normal differences in CF sputum viscosity, sol fractions were not normalized for protein content consistent with previously described methods.
as §3

MPO heme ring [8] = experiment: Spectral analysis of MPO heme ring with H2O2; conditions: 2.5 mM PIC1, 200 μM H2O2
Method: as §2

purified MPO [9] = experiment: Purified MPO oxidation of TMB; format: biochemical
Method: as §1, §3

[10] = Anti-oxidant assay: TMB oxidized by solid-phase MPO, transferred to uncoated well; format: biochemical; conditions: absorbance 450 nm, n = 4, P = 0.02
Method: Pure MPO was coated onto an Immunlon-2 96 well plate at 24 μg/ml in carbonate buffer overnight at 4°C. The plate was washed to remove unbound protein with PBS and 0.05% Tween, and then 100 μl of TMB was added. […] After 1 minute, 100 μl of 2.5 N H2SO4 was added to stop the reaction and absorbance was read at 450 nm.

MPO in CF sputum sol [11] = experiment: PIC1 dose-response on MPO activity (TMB) in CF sputum sol #2m; format: biochemical
Method: as §3

Substance: IALILEPICCQERAA-dPEG24 [PIC1]
- reversal of TMB oxidation [1]: the color change was reversed and the absorbance value was minimal
- inhibition of MPO activity (MPO in neutrophil lysate): 12.5 fold
- protection of MPO from bleach (MPO heme ring [2]): largely protected from the oxidative effects of bleach
- bleach-mediated iron release from MPO (MPO): able to prevent bleach-mediated release of iron from MPO
- C1 enzymatic activation (C1q): inhibits enzymatic activation
- C1q binding affinity (C1q; similar to C1r-C1s-C1s-C1r tetramer): nanomolar affinity
- inhibition of purified MPO oxidation of O-dianisidine (purified MPO [3]): dramatically inhibited
- P. aeruginosa-initiated complement activation (complement activation; CF sputum sols): can inhibit P. aeruginosa-initiated complement activation
- C5a generation (complement activation; CF sputum soluble fraction): can inhibit P. aeruginosa-mediated generation of the pro-inflammatory anaphylatoxin C5a
- inhibition of MPO peroxidase activity (purified MPO [4]; 0.5 mM PIC1, 20 μM MPO, P < 0.001): 5.4 fold
- inhibition of MPO peroxidase activity (purified MPO [4]; MPO concentrations up to 80 μM): Concentration dependent PIC1 inhibition of MPO peroxidase activity
- MPO oxidation of TMB (MPO in CF sputum sol [5]): dramatically inhibited MPO oxidation of TMB in all conditions
- role of acidification in MPO inhibition (MPO in CF sol): not mediated by acidification of the sol
- inhibition of purified MPO oxidation of ABTS (purified MPO [6]): dramatically inhibited
- aqueous solubility [7]: excellent aqueous solubility
- tolerability in vivo [7]: well tolerated in vivo
- median MPO activity after PIC1 (MPO in CF sputum sols; 7.5 mM PIC1, 14 CF sputum samples, as number of neutrophils lysed to yield equivalent TMB oxidation, baseline median 94.0, P = 0.02): 27.9
- decrease in median MPO activity (MPO in CF sputum sols; 7.5 mM PIC1, 14 CF sputum samples, vs baseline, P = 0.02): 3.4 fold
- change in MPO activity (MPO in CF sputum sols; 7.5 mM PIC1, each of 14 samples): decrease in MPO activity
- MPO-postPIC1 median (MPO in CF sputum sols; PIC1 7.5 mM, 14 samples, MPO-pre median 93.975): 27.935 x 10E6
- MPO-postPIC1 (MPO in CF sputum sols; PIC1 7.5 mM, sample 1e, MPO-pre 117.41): 30.1 x 10E6
- MPO-postPIC1 (MPO in CF sputum sols; PIC1 7.5 mM, sample 2j, MPO-pre 17.29): 0 x 10E6
- MPO-postPIC1 (MPO in CF sputum sols; PIC1 7.5 mM, sample 2m, MPO-pre 158.85): 43.21 x 10E6
- MPO-postPIC1 (MPO in CF sputum sols; PIC1 7.5 mM, sample 3i, MPO-pre 1117.64): 493.15 x 10E6
- MPO-postPIC1 (MPO in CF sputum sols; PIC1 7.5 mM, sample 4a, MPO-pre 7.9): 0 x 10E6
- MPO-postPIC1 (MPO in CF sputum sols; PIC1 7.5 mM, sample 5e, MPO-pre 305.93): 173.21 x 10E6
- MPO-postPIC1 (MPO in CF sputum sols; PIC1 7.5 mM, sample 10g, MPO-pre 71.54): 19.09 x 10E6
- MPO-postPIC1 (MPO in CF sputum sols; PIC1 7.5 mM, sample 15e, MPO-pre 55.77): 12.92 x 10E6
- MPO-postPIC1 (MPO in CF sputum sols; PIC1 7.5 mM, sample 17c, MPO-pre 77.44): 25.77 x 10E6
- MPO-postPIC1 (MPO in CF sputum sols; PIC1 7.5 mM, sample 28a, MPO-pre 325.09): 297.05 x 10E6
- MPO-postPIC1 (MPO in CF sputum sols; PIC1 7.5 mM, sample 29e, MPO-pre 110.51): 43.24 x 10E6
- MPO-postPIC1 (MPO in CF sputum sols; PIC1 7.5 mM, sample 34j, MPO-pre 68.92): 16.55 x 10E6
- MPO-postPIC1 (MPO in CF sputum sols; PIC1 7.5 mM, sample 1d, MPO-pre 229): 214.65 x 10E6
- MPO-postPIC1 (MPO in CF sputum sols; PIC1 7.5 mM, sample 9d, MPO-pre 34.41): 0 x 10E6
- heme ring protection (MPO heme ring [8]): able to inhibit oxidative damage to the heme ring and alteration of the iron charge state
- inhibition of purified MPO oxidation of TMB (purified MPO [9]; 0.9 mM PIC1, MPO 80 nM, n = 3, P < 0.001): 28 fold
- improvement in MPO inhibition compared with ABAH (purified MPO [9]; 0.9 mM, TMB, P = 0.002): 7 fold
- reduction in oxidized TMB [10]: 20 fold
- reduction in MPO activity (MPO in CF sputum sol [11]; 7.5 mM PIC1 vs no PIC1, n = 3, P = 0.001): 11.5 fold
- inhibition of MPO activity (MPO in CF sputum sol [11]; PIC1 titration): dose-dependent inhibition of MPO activity

From PMC5279725 (PLoS ONE, 2017)
